Tests used:
Assay in all cases: relative viability (nuclei count vs DMSO), 5 days (fraction); higher = more cells survive
HARA = tested on: HARA
How it was run: (§1)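 Dosing by pin tool came one day after lung cancer cell lines were seeded in 1536-well plates, using either one drug or a fixed anchor-drug dose plus five library-drug doses (not always all listed) in √10 steps. After 5 days, nuclei were counted on 4× images. Relative viability is treated-well nuclei count divided by vehicle-well nuclei count, and values are medians of duplicate plates.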

BEN = tested on: BEN
How it was run: as §1

NCI-H1666 = tested on: NCI-H1666
How it was run: as §1

NCI-H1915 = tested on: NCI-H1915
How it was run: as §1

NCI-H1563 = tested on: NCI-H1563
How it was run: as §1

NCI-H1395 = tested on: NCI-H1395
How it was run: as §1

NCI-H23 = tested on: NCI-H23
How it was run: as §1

NCI-H2023 = tested on: NCI-H2023
How it was run: as §1

A-427 = tested on: A-427
How it was run: as §1

PC-3 [JPC-3] = tested on: PC-3 [JPC-3]
How it was run: as §1

LXF-289 = tested on: LXF-289
How it was run: as §1

Question: `COCC1(CO)C(=O)C2CCN1CC2` (configuration not stated) [PRIMA-1MET] + N=C(N)NC(=N)NCCc1ccccc1 [Phenformin] (partner 250 µM) was tested. Which relative viability (HARA; first compound 0.2 µM) did it give?
Answer: 0.526

Question: What about the relative viability (HARA; first compound 0.6325 µM) of the same compound?
Answer: 0.421

Question: And the relative viability (HARA; first compound 6.325 µM)?
Answer: 0.538

Question: And the relative viability (HARA; first compound 20 µM)?
Answer: 0.409

Question: What about the relative viability (BEN; first compound 0.2 µM) of the same compound?
Answer: 0.268

Question: What about the relative viability (BEN; first compound 0.6325 µM) of the same compound?
Answer: 0.275

Question: And the relative viability (BEN; first compound 6.325 µM)?
Answer: 0.217

Question: What about the relative viability (BEN; first compound 20 µM) of the same compound?
Answer: 0.224

Question: And the relative viability (NCI-H1666; first compound 0.2 µM)?
Answer: 0.558

Question: What about the relative viability (NCI-H1666; first compound 0.6325 µM) of the same compound?
Answer: 0.548

Question: What about the relative viability (NCI-H1666; first compound 2 µM) of the same compound?
Answer: 0.555

Question: And the relative viability (NCI-H1666; first compound 6.325 µM)?
Answer: 0.634

Question: What about the relative viability (NCI-H1666; first compound 20 µM) of the same compound?
Answer: 0.564

Question: What about the relative viability (NCI-H1915; first compound 0.2 µM) of the same compound?
Answer: 0.44

Question: What about the relative viability (NCI-H1915; first compound 0.6325 µM) of the same compound?
Answer: 0.345

Question: What about the relative viability (NCI-H1915; first compound 6.325 µM) of the same compound?
Answer: 0.399

Question: What about the relative viability (NCI-H1915; first compound 20 µM) of the same compound?
Answer: 0.353

Question: And the relative viability (NCI-H1563; first compound 0.2 µM)?
Answer: 0.686

Question: What about the relative viability (NCI-H1563; first compound 0.6325 µM) of the same compound?
Answer: 0.673

Question: And the relative viability (NCI-H1563; first compound 2 µM)?
Answer: 0.668

Question: What about the relative viability (NCI-H1563; first compound 6.325 µM) of the same compound?
Answer: 0.719

Question: What about the relative viability (NCI-H1563; first compound 20 µM) of the same compound?
Answer: 0.302

Question: And the relative viability (NCI-H1395; first compound 0.2 µM)?
Answer: 0.469

Question: And the relative viability (NCI-H1395; first compound 0.6325 µM)?
Answer: 0.414

Question: What about the relative viability (NCI-H1395; first compound 2 µM) of the same compound?
Answer: 0.416

Question: What about the relative viability (NCI-H1395; first compound 6.325 µM) of the same compound?
Answer: 0.441

Question: And the relative viability (NCI-H1395; first compound 20 µM)?
Answer: 0.395

Question: And the relative viability (NCI-H23; first compound 0.2 µM)?
Answer: 0.854

Question: What about the relative viability (NCI-H23; first compound 0.6325 µM) of the same compound?
Answer: 0.772

Question: What about the relative viability (NCI-H23; first compound 2 µM) of the same compound?
Answer: 0.822

Question: And the relative viability (NCI-H23; first compound 6.325 µM)?
Answer: 0.842

Question: And the relative viability (NCI-H23; first compound 20 µM)?
Answer: 0.561

Question: And the relative viability (NCI-H2023; first compound 0.2 µM)?
Answer: 0.453

Question: What about the relative viability (NCI-H2023; first compound 0.6325 µM) of the same compound?
Answer: 0.447

Question: What about the relative viability (NCI-H2023; first compound 2 µM) of the same compound?
Answer: 0.398

Question: And the relative viability (NCI-H2023; first compound 6.325 µM)?
Answer: 0.405

Question: What about the relative viability (NCI-H2023; first compound 20 µM) of the same compound?
Answer: 0.284

Question: And the relative viability (A-427; first compound 0.2 µM)?
Answer: 0.221

Question: What about the relative viability (A-427; first compound 0.6325 µM) of the same compound?
Answer: 0.294

Question: What about the relative viability (A-427; first compound 2 µM) of the same compound?
Answer: 0.304

Question: And the relative viability (A-427; first compound 6.325 µM)?
Answer: 0.281

Question: And the relative viability (A-427; first compound 20 µM)?
Answer: 0.133

Question: What about the relative viability (PC-3 [JPC-3]; first compound 0.2 µM) of the same compound?
Answer: 0.464

Question: What about the relative viability (PC-3 [JPC-3]; first compound 0.6325 µM) of the same compound?
Answer: 0.456

Question: What about the relative viability (PC-3 [JPC-3]; first compound 2 µM) of the same compound?
Answer: 0.462

Question: What about the relative viability (PC-3 [JPC-3]; first compound 6.325 µM) of the same compound?
Answer: 0.477

Question: And the relative viability (PC-3 [JPC-3]; first compound 20 µM)?
Answer: 0.466

Question: What about the relative viability (LXF-289; first compound 0.2 µM) of the same compound?
Answer: 0.491

Question: And the relative viability (LXF-289; first compound 0.6325 µM)?
Answer: 0.482

Question: What about the relative viability (LXF-289; first compound 2 µM) of the same compound?
Answer: 0.428

Question: What about the relative viability (LXF-289; first compound 6.325 µM) of the same compound?
Answer: 0.513

Question: What about the relative viability (LXF-289; first compound 20 µM) of the same compound?
Answer: 0.456
